Data from patent US20210338672A1, “USE OF AN INHIBITOR OF AN ENT FAMILY TRANSPORTER IN THE TREATMENT OF CANCER AND COMBINATION THEREOF WITH AN ADENOSINE RECEPTOR ANTAGONIST” (iTeos Belgium SA, priority 2018, published 2021).
Counter-ions that a name gives are not always drawn.

Experiments:
[1] = tested on: Human primary CD3+ T cells; test: TNFα secretion by CD3+ T cells (AlphaLISA); conditions: 100 μM ATP; for Reversal of inhibition of T cells in the presence of ATP, A2A receptor antagonist in combination with dipyridamole: FIG. 5A-C (viability, CD8+ proliferation, TNFα), with dipyridamole 1 μM, Compound 8a 300 nM, NIR178 5 μM, CPI-444 5 μM, AZD4635 1 μM, AB928 1 μM
Protocol: Human primary CD3+ T cells were stimulated with antiCD3/antiCD28-coated microbeads, and treated with 100 μM ATP or control medium. Viability of CD3+ T cells (FIG. 5A) and proliferation of CD8+ T cells (FIG. 5B) were analysed by flow cytometry after a 3 days incubation period. TNFα secretion in the supernatant was analysed by AlphaLISA. Grey shaded bars show A2AR antagonist treated wells, whilst clear bars denote concentration-matched DMSO treated wells. […] Data shown are representative of data obtained in three healthy individuals in 4 independent experiments.
Venous blood from healthy volunteers, all of whom signed an informed consent approved by the Ethics Committee (FOR-UIC-BV-050-01-01 ICF_HBS_HD Version 5.0), was obtained via Unité d'Investigation Clinique (Centre Hospitalier Universitaire de Tivoli, La Louviere, Belgium). Mononuclear cells were collected by density gradient centrifugation, using SepMate-50 tubes and Lymphoprep according to the manufacturer's instructions. CD3+ T cells were isolated by immunomagnetic negative selection, using the EasySep Human T Cell Isolation Kit as per manufacturer's instructions. CD3+ T cells were stored in heat inactivated FBS and 10% DMSO in liquid nitrogen.
Human purified CD3+ T cells were thawed and washed twice with RPMI1640 medium, UltraGlutamine, supplemented with 1× non-essential amino acids (Lonza), and 1 mM Sodium Pyruvate (Gibco) (complete media), containing 10% hiFBS. After the final wash, cells were resuspended in PBS containing 10% FBS, and labeled using 3 μM CFSE during 5 min at room temperature, followed by two wash steps in complete media. After the last wash, cells were suspended at 1.6×10^6 cells/mL in X-Vivol5 medium. 50 μL of cell suspension (8×10^4 T cells) was added to wells of sterile round-bottom 96-well plates. Cells were activated by adding 50 μL of anti-CD3 anti-CD28 coated microbeads (Dynabeads human T-activator CD3/CD28), suspended in X-Vivo15 medium, at a ratio of one microbead per two cells. […] The final concentration of DMSO in the assay was 0.05%, and the final assay volume was 200 μL. Experiments were performed in biological duplicate, and DMSO control was added in quadruplicate. The cells were placed in a 37° C. humidified tissue culture incubator with 5% CO2 for 72 hours. After 72 hours, the cells were pelleted by centrifugation at 1600 rpm for 5 minutes, and supernatants were transferred to V-bottom 96-well plates for cytokine quantification. Cell pellets were resuspended in FACS buffer (see below) for flow cytometry analysis.
Supernatants were centrifuged at 4000 rpm for 10 minutes, and IL-2 was quantified using the IL-2 (human) AlphaLISA Biotin-Free Detection Kit, and TNFα was quantified using the AlphaLISA Human TNFα Biotin-Free Detection Kit, according to the manufacturer's instructions.

[2] = tested on: Human primary CD3+ T cells; conditions: 25 μM adenosine or 200 μM ATP, 3 days; for T cell cytokine secretion (IL-2), effect of adenosine or ATP: anti-CD3/CD28-stimulated CD3+ T cells; for Restoration of adenosine- and ATP-mediated suppression of IL-2 secretion: single agent, Compound 8a at 300 nM
Protocol: CD3+ T cells were stimulated with antiCD3/antiCD28-coated microbeads, and treated with 25 μM adenosine (FIG. 4A) or 200 μM ATP (FIG. 4B). IL-2 secretion in the supernatant was analysed by AlphaLISA after a 3 days incubation period. […] Representative data for 1 healthy donor are shown.
(§1) PBMC and CD3+ T cell isolation. Venous blood from healthy volunteers, all of whom signed an informed consent approved by the Ethics Committee (FOR-UIC-BV-050-01-01 ICF_HBS_HD Version 5.0), was obtained via Unité d'Investigation Clinique (Centre Hospitalier Universitaire de Tivoli, La Louviere, Belgium). Mononuclear cells were collected by density gradient centrifugation, using SepMate-50 tubes and Lymphoprep according to the manufacturer's instructions. CD3+ T cells were isolated by immunomagnetic negative selection, using the EasySep Human T Cell Isolation Kit as per manufacturer's instructions. CD3+ T cells were stored in heat inactivated FBS and 10% DMSO in liquid nitrogen.
(§2) Human primary T cell culture. Human purified CD3+ T cells were thawed and washed twice with RPMI1640 medium, UltraGlutamine, supplemented with 1× non-essential amino acids (Lonza), and 1 mM Sodium Pyruvate (Gibco) (complete media), containing 10% hiFBS. After the final wash, cells were resuspended in PBS containing 10% FBS, and labeled using 3 μM CFSE during 5 min at room temperature, followed by two wash steps in complete media. After the last wash, cells were suspended at 1.6×10^6 cells/mL in X-Vivol5 medium. 50 μL of cell suspension (8×10^4 T cells) was added to wells of sterile round-bottom 96-well plates. Cells were activated by adding 50 μL of anti-CD3 anti-CD28 coated microbeads (Dynabeads human T-activator CD3/CD28), suspended in X-Vivo15 medium, at a ratio of one microbead per two cells. […] The final concentration of DMSO in the assay was 0.05%, and the final assay volume was 200 μL. Experiments were performed in biological duplicate, and DMSO control was added in quadruplicate. The cells were placed in a 37° C. humidified tissue culture incubator with 5% CO2 for 72 hours. After 72 hours, the cells were pelleted by centrifugation at 1600 rpm for 5 minutes, and supernatants were transferred to V-bottom 96-well plates for cytokine quantification. Cell pellets were resuspended in FACS buffer (see below) for flow cytometry analysis.
Cytokine quantification. Supernatants were centrifuged at 4000 rpm for 10 minutes, and IL-2 was quantified using the IL-2 (human) AlphaLISA Biotin-Free Detection Kit, and TNFα was quantified using the AlphaLISA Human TNFα Biotin-Free Detection Kit, according to the manufacturer's instructions.

[3] = tested on: Human primary CD3+ T cells; test: Proliferation of CD4+ and CD8+ T cells (CFSE dilution, flow cytometry); conditions: 3 days; for T cell proliferation, effect of adenosine or ATP: anti-CD3/CD28-stimulated CD3+ T cells; for T cell proliferation, effect of adenosine or ATP / Restoration of adenosine- and ATP-mediated suppression of T cell proliferation: 25 μM adenosine or 200 μM ATP; for Restoration of adenosine- and ATP-mediated suppression of T cell proliferation: single agent, Compound 8a at 300 nM
Protocol: Human primary CD3+ T cells were stimulated with antiCD3/antiCD28-coated microbeads, and treated with 25 μM adenosine (FIGS. 3A and 3C) or 200 μM ATP (FIGS. 3B and 3D). Proliferation of CD4+(FIGS. 3A and 3B) and CD8+(FIGS. 3C and 3D) T cells was analysed by flow cytometry after a 3 days incubation period.
(§3) Human primary CD3+ T cells were stimulated with antiCD3/antiCD28-coated microbeads, and treated with 100 μM ATP or control medium. Viability of CD3+ T cells (FIG. 5A) and proliferation of CD8+ T cells (FIG. 5B) were analysed by flow cytometry after a 3 days incubation period.
as §1
Human primary T cell culture. Human purified CD3+ T cells were thawed and washed twice with RPMI1640 medium, UltraGlutamine, supplemented with 1× non-essential amino acids (Lonza), and 1 mM Sodium Pyruvate (Gibco) (complete media), containing 10% hiFBS. After the final wash, cells were resuspended in PBS containing 10% FBS, and labeled using 3 μM CFSE during 5 min at room temperature, followed by two wash steps in complete media. After the last wash, cells were suspended at 1.6×10^6 cells/mL in X-Vivol5 medium. 50 μL of cell suspension (8×10^4 T cells) was added to wells of sterile round-bottom 96-well plates. Cells were activated by adding 50 μL of anti-CD3 anti-CD28 coated microbeads (Dynabeads human T-activator CD3/CD28), suspended in X-Vivo15 medium, at a ratio of one microbead per two cells. […] The final concentration of DMSO in the assay was 0.05%, and the final assay volume was 200 μL. Experiments were performed in biological duplicate, and DMSO control was added in quadruplicate. The cells were placed in a 37° C. humidified tissue culture incubator with 5% CO2 for 72 hours. […] Cell pellets were resuspended in FACS buffer (see below) for flow cytometry analysis.
(§4) Flow cytometry. Cells were washed with FACS buffer (PBS containing 2 mM EDTA and 0.1% BSA) and stained with surface marker antibodies and viability dye for 20 min on ice. Cells were washed twice with FACS buffer and data acquired using an LSRFortessa (BD biosciences). Analysis was performed using FlowJo software (Treestar).

[4] = tested on: Human primary CD3+ T cells; test: Viability of stimulated human primary CD3+ T cells (flow cytometry, fixable viability dye); conditions: 3 days; for T cell viability, effect of adenosine or ATP: anti-CD3/CD28-stimulated CD3+ T cells; for T cell viability, effect of adenosine or ATP / Restoration of adenosine- and ATP-mediated suppression of T cell viability: 25 μM adenosine or 200 μM ATP; for Restoration of adenosine- and ATP-mediated suppression of T cell viability: single agent, Compound 8a at 300 nM
Protocol: Human primary CD3+ T cells were stimulated with antiCD3/antiCD28-coated microbeads, and treated with 25 μM adenosine (FIG. 2A) or 200 μM ATP (FIG. 2B). T cell viability was analysed by flow cytometry after a 3 days incubation period.
as §3
PBMC and CD3+ T cell isolation. […] Mononuclear cells were collected by density gradient centrifugation, using SepMate-50 tubes and Lymphoprep according to the manufacturer's instructions. CD3+ T cells were isolated by immunomagnetic negative selection, using the EasySep Human T Cell Isolation Kit as per manufacturer's instructions. CD3+ T cells were stored in heat inactivated FBS and 10% DMSO in liquid nitrogen.
as §2, §4

[5] = tested on: LPS induced TNFalpha production; test: In vivo LPS induced TNFalpha production in mouse (serum ELISA); conditions: BALB/c mice; 20 mg/kg p.o. 1 h before LPS; p=0.008
Protocol: BALB/c mice were pretreated for 1 h before LPS (1 mg/kg I.V) injection with NBMPR (20 mg/kg p.o.) or vehicle. […] One hour after LPS treatment, blood serum was collected from the mice. TNFalpha levels were determined by ELISA (n=5).
After 30 minutes, mice were treated with NBMPR p.o. at 20 mg/kg. 60 minutes later, mice were treated with LPS and blood was drawn for TNFalpha measurement in the serum, by ELISA.

MCA205 tumor = test: Mouse syngeneic MCA205 fibrosarcoma tumor model; assay type: in vivo; conditions: C57BL/6 mice; 20 mg/kg p.o. BID for 22 days; p=0.0043
Text: FIG. 7A is a graph representing the median tumor volume over time after subcutaneous inoculation of tumor cells.
MCA205 tumor cells were inoculated subcutaneously into the right flank of C57BL/6 mice. When tumors reached an average size of about […], mice were randomly allocated into groups.

Cc1c(C#N)cccc1-c1cc(-c2cn(Cc3cccc(C(C)(C)O)n3)nn2)nc(N)n1 [AB928, 3-(2-amino-6-(1-((6-(2-hydroxypropan-2-yl)pyridin-2-yl)methyl)-1H-1,2,3-triazol-4-yl)pyrimidin-4-yl)-2-methylbenzonitrile]
Reversal of inhibition of T cells in the presence of ATP, A2A receptor antagonist in combination with dipyridamole [1]: reversed

Nc1ncnc2c1ncn2[C@@H]1O[C@H](COP(=O)([O-])OP(=O)([O-])OP(=O)(O)O)[C@@H](O)[C@H]1O.O.[Na+].[Na+] [ATP, Adenosine 5′-triphosphate disodium salt hydrate]
T cell cytokine secretion (IL-2), effect of adenosine or ATP [2]: profoundly suppressed | Production of TNFα, effect of ATP ([1]; 3 days): significantly inhibited | CD8+ T cell proliferation, effect of ATP ([3]; 100 μM ATP): significantly inhibited | T cell proliferation, effect of adenosine or ATP [3]: profoundly suppressed | T cell viability, effect of ATP ([4]; 100 μM ATP): reduced | T cell viability, effect of adenosine or ATP [4]: strongly reduced

Cc1cc(-c2nnc(N)nc2-c2ccc(F)cc2)cc(Cl)n1 [AZD4635, 6-(2-chloro-6-methylpyridin-4-yl)-5-(4-fluorophenyl)-1,2,4-triazin-3-amine]
Reversal of inhibition of T cells in the presence of ATP, A2A receptor antagonist in combination with dipyridamole [1]: reversed

Nc1ncnc2c1ncn2[C@@H]1O[C@H](CO)[C@@H](O)[C@H]1O [Adenosine]
T cell cytokine secretion (IL-2), effect of adenosine or ATP [2]: profoundly suppressed | T cell proliferation, effect of adenosine or ATP [3]: profoundly suppressed | T cell viability, effect of adenosine or ATP [4]: strongly reduced

Cc1ccc(-c2nc(N)nc3c2nnn3Cc2cccc(CO[C@H]3CCOC3)n2)o1 [CPI-444, (S)-7-(5-methylfuran-2-yl)-3-((6-(([tetrahydrofuran-3-yl]oxy)methyl)pyridin-2-yl)methyl)-3H-[1,2,3]triazolo[4,5-d]pyrimidin-5-amine]
Reversal of inhibition of T cells in the presence of ATP, A2A receptor antagonist in combination with dipyridamole [1]: reversed

O=[N+]([O-])c1ccc(CSc2ncnc3c2ncn3[C@@H]2O[C@H](CO)[C@@H](O)[C@H]2O)cc1 [NBMPR, 6-S-[(4-Nitrophenyl)methyl]-6-thioinosine]
Suppression of TNFalpha production after LPS, NBMPR on its own [5]: ~2 fold | Tumor growth compared to Vehicle, NBMPR single agent (MCA205 tumor): significant delay in tumor growth

Nc1nc(-n2cccn2)nc(-n2cccn2)c1Br [NIR178, 5-bromo-2,6-di-(1H-pyrazol-1-yl)pyrimidin-4-amine]
Reversal of inhibition of T cells in the presence of ATP, A2A receptor antagonist in combination with dipyridamole [1]: reversed

COc1cc(C(=O)OCCCN2CCCN(CCCOC(=O)c3cc(OC)c(OC)c(OC)c3)CC2)cc(OC)c1OC [dilazep hydrochloride]
Restoration of adenosine- and ATP-mediated suppression of IL-2 secretion [2]: none of the ENT inhibitors rescued | Restoration of adenosine- and ATP-mediated suppression of T cell proliferation [3]: restored | Restoration of adenosine- and ATP-mediated suppression of T cell viability [4]: restored

OCCN(CCO)c1nc(N2CCCCC2)c2nc(N(CCO)CCO)nc(N3CCCCC3)c2n1 [dipyridamole]
Restoration of adenosine- and ATP-mediated suppression of IL-2 secretion [2]: none of the ENT inhibitors rescued | Reversal of ATP inhibition of CD8+ T cell proliferation ([3]; 100 μM ATP, dipyridamole 1 μM): completely reversed | Restoration of adenosine- and ATP-mediated suppression of T cell proliferation [3]: restored | Reversal of ATP-reduced T cell viability ([4]; 100 μM ATP, dipyridamole 1 μM): completely reversed | Restoration of adenosine- and ATP-mediated suppression of T cell viability [4]: restored

CCCSc1nc(N[C@@H]2C[C@H]2c2ccc(F)c(F)c2)c2nnn([C@@H]3C[C@H](OCCO)[C@@H](O)[C@H]3O)c2n1 [ticagrelor]
Restoration of adenosine- and ATP-mediated suppression of IL-2 secretion [2]: none of the ENT inhibitors rescued | Restoration of adenosine- and ATP-mediated suppression of T cell proliferation [3]: restored | Restoration of adenosine- and ATP-mediated suppression of T cell viability [4]: restored
